Source: article doi:10.1101/2023.08.20.554024v1, “Structural framework for the understanding spectroscopic and functional signatures of the cyanobacterial Orange Carotenoid Protein families” (biorxiv, 2023)

What was measured:
[1] = biological target: T1, SynOCP1 (Synechocystis sp. PCC 6803, UniProt P74102); assay: absorbance spectrum and photocycle of the holoprotein; assay type: binding; settings: bound in E. coli making echinenone; pH 7.6, 150 mM NaCl
T1 construct: gene slr1963; full length from E. coli, tag removed, from earlier work; monomer in solution
T1 sequence (P74102 2-317): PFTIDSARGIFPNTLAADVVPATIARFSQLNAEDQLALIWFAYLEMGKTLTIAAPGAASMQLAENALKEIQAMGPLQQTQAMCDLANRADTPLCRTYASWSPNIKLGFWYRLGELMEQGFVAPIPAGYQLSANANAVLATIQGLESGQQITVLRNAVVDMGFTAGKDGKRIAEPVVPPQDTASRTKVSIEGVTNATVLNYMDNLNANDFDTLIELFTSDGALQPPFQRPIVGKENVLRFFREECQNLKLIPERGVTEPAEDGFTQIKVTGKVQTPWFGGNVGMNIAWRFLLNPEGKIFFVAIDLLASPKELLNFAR

[2] = biological target: T2, CrinOCP2 (Crinalium epipsammum, UniProt K9VSN3, E26A); assay: X-ray crystal structure, […] A; assay type: binding; settings: bound in E. coli making echinenone; crystals pH 6.5; carotenoid site between NTD and CTD, keto group at Tyr201/Trp288
T2 construct: gene Cri9333_0045; full length from E. coli C41(DE3), codon-optimized, pET28a+, His-tag cut by thrombin leaving N-terminal GSH; monomer
T2 sequence (K9VSN3 1-319 E26A): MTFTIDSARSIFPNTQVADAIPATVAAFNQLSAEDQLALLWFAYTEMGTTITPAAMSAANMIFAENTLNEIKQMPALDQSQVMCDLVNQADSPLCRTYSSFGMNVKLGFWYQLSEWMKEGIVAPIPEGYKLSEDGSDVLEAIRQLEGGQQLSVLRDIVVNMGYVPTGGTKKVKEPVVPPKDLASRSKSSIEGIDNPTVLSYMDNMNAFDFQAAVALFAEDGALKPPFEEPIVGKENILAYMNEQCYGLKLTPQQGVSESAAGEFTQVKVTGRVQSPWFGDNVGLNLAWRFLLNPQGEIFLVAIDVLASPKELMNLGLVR

## CC1=C(/C=C/C(C)=C/C=C/C(C)=C/C=C/C=C(C)/C=C/C=C(C)/C=C/C2=C(C)C(=O)CCC2(C)C)C(C)(C)CCC1 [ECH, echinenone]
[1]
  absorbance spectrum and photocycle of the holoprotein: All proteins were ECH-bound.
[2]
  X-ray crystal structure, 2.2 A: HPLC analysis indicated that both OCP2 variants contained ECH as the predominant carotenoid
